“Also recorded” adds a separate entry of the source. Like-named read-outs stand apart in the source and are kept apart here.
Columns and labels:
[1] = test system: benzodiazepine (BDZ)-binding sites; assay: Radioligand binding assay, [3H]flunitrazepam, rat cerebral cortex; settings: compound 1 × 10^−6 M;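 also: low percentages indicate weak binding of the compound to the site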
Experimental: (§1) Binding experiments were conducted in 96-well microplates in a total volume of 200 μL of appropriate buffer. The reaction mixture included 50 μL solution of test compound, 50 μL of radioligand, and […] the tissue suspension. Rat cerebral cortex was used for each receptor. The radioactivity was measured in MicroBeta TriLux 1450-liquid scintillation counter (PerkinElmer, Waltham, MA, USA). Radioligand binding data were analyzed using iterative curve fitting routines (GraphPAD/Prism, Version 3.0, San Diego, CA, USA). Ki values were calculated from the Cheng and Prusoff equation [36].

[2] = test system: maximal electroshock-induced seizures; assay: Maximal electroshock-induced seizure (MES) test in mice; format: in vivo, mouse; settings: for p/t, number of animals protected against MES-induced seizures / number tested / responders at 300 mg/kg: 300 mg/kg i.p.; for responders at 300 mg/kg / ED50: Mus musculus, ip; for responders at 300 mg/kg: read-out: percent of animals protected against MES-induced seizures; for PI (TD50/ED50): protective index; for onset of action: significant protection as early as 15 min after parenteral administration
Experimental: Additionally, all efforts were made to minimize animal suffering and to use only the number of animals necessary to produce reliable scientific data.
In the initial stage of the study, groups of eight mice were supplied with the compounds (administered intraperitoneally) in a dose of 300 mg/kg and then exposed to electrical impulse at fixed intervals (15, 30, 60, 120 min).
Each mouse was used only once.
Fresh drug solutions were prepared on each day of experimentation and administered at 15, 30, 60 and 120 min. before the initiation of maximal electroconvulsions. Electroconvulsions were produced by a current (0.2 s stimulus duration; 500 V, 50 Hz, fixed current intensity of 25 mA) delivered via ear-clip electrodes by a Rodent Shocker generator (constant-current stimulator Type 221, Hugo Sachs Elektronik, Freiburg, Germany). The criterion for the occurrence of seizure activity was the tonic hind limb extension. The animals were administered with a constant dose of 300 mg/kg of each of the examined compounds and were subjected to MES-induced seizures. […] The animals were administered with different doses of the tested compounds so as to obtain a variable percentage of protection against maximal electroconvulsions, allowing the construction of dose-response relationship lines for each examined compound administered i.p. at various pretreatment times, according to Litchfield and Wilcoxon. Each ED50 value represents the dose of the studied compounds that is required to protect 50% of the animals tested against MES-induced seizures.

GABAA receptors = assay: Radioligand binding assay, [3H]muscimol, rat cerebral cortex; settings: compound 1 × 10^−6 M, [3H]muscimol, rat cerebral cortex;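 also: low percentages indicate weak binding of the compound to the receptor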
Experimental: as §1, with “The radioactivity was measured in MicroBeta TriLux 1450-liquid scintillation counter (PerkinElmer, Waltham, MA, USA).” left out

[3] = test system: motor performance in mice; assay: Chimney test (motor performance impairment, acute adverse effects); settings: i.p.
Experimental: Adult male Swiss mice (weighing 22–26 g) that were kept in colony cages with free access to food and tap water, housed under standardized housing conditions, were used. After seven days of adaptation to laboratory conditions, the animals were randomly assigned to experimental groups each comprised of eight mice. Each mouse was used only once. Procedures involving animals and their care were conducted in accordance with current European Community and Polish legislation on animal experimentation. The experimental protocols and procedures described in this manuscript were approved by the First Local Ethics Committee at the Medical University in Lublin and the Second Local Ethics Committee at the University of Life Sciences in Lublin and complied with the European Communities Council Directive of 24 November 1986 (86/609/EEC).
In this test, the animals had to climb backwards up a plastic tube (3 cm inner diameter, 30 cm length), and motor performance impairment was indicated by the inability of the mice to climb backward up the transparent tube within 60 s. […] To evaluate each TD50 value, at least four groups of animals (each group consisted of eight mice) injected with various doses of the appropriate compound were challenged with the chimney test. A dose-response relationship line was calculated on the basis of the percentage of mice showing motor deficits by means of the log-probit method according to Litchfield and Wilcoxon.

[4] = pretreatment time 120 min, mice
[5] = 0.25 h, pretreatment time 15 min, mice
[6] = 0.5 h, pretreatment time 30 min, mice
[7] = 1 h, pretreatment time 60 min, mice
[8] = 2 h, pretreatment time 120 min, mice
[9] = pretreatment time 15 min, mice, read-out: ED50 ± S.E. (MES test)
[10] = pretreatment time 30 min, mice, read-out: ED50 ± S.E. (MES test)
[11] = pretreatment time 60 min, mice, read-out: ED50 ± S.E. (MES test)
[12] = pretreatment time 120 min, mice, read-out: ED50 ± S.E. (MES test)
[13] = chimney TD50 / MES ED50, pretreatment time 15 min
[14] = chimney TD50 / MES ED50, pretreatment time 30 min
[15] = chimney TD50 / MES ED50, pretreatment time 60 min
[16] = chimney TD50 / MES ED50, pretreatment time 120 min

S=c1[nH]nc(-c2ccc(Cl)cc2)n1-c1ccccc1Br [Compound 15a, 4-(2-Bromophenyl)-5-(4-chlorophenyl)-2,4-dihydro-3H-1,2,4-triazole-3-thione]
Percent of Specific Binding, BDZ [1]: 21%
p/t, number of animals protected against MES-induced seizures / number tested ([2]; pretreatment time 15 min, mice): 6/8
p/t, number of animals protected against MES-induced seizures / number tested ([2]; pretreatment time 30 min, mice): 8/8
p/t, number of animals protected against MES-induced seizures / number tested ([2]; pretreatment time 60 min, mice): 8/8
p/t, number of animals protected against MES-induced seizures / number tested [2, 4]: 7/8
responders at 300 mg/kg [2, 5]: 75%
responders at 300 mg/kg [2, 6]: 100%
responders at 300 mg/kg [2, 7]: 100%
responders at 300 mg/kg [2, 8]: 87.5%
ED50 [2, 9]: 183 ± 25.1 mg/kg
ED50 [2, 10]: 105 ± 16.5 mg/kg
ED50 [2, 11]: 137 ± 19.9 mg/kg
ED50 [2, 12]: 176 ± 25 mg/kg
PI (TD50/ED50) [2, 13]: 1.5
PI (TD50/ED50) [2, 14]: 2.4
PI (TD50/ED50) [2, 15]: 1.8
PI (TD50/ED50) [2, 16]: 1.4
onset of action ([2]; MES, mice): quick onset of action
melting point: 250 to 252 °C
Percent of Specific Binding, GABAA (GABAA receptors): 8%

CSc1ccc(-n2c(-c3ccc(Cl)cc3)n[nH]c2=S)cc1 [Compound 17a, 5-(4-Chlorophenyl)-4-[4-(methylsulfanyl)phenyl]-2,4-dihydro-3H-1,2,4-triazole-3-thione]
Percent of Specific Binding, BDZ [1]: 6%
p/t, number of animals protected against MES-induced seizures / number tested ([2]; pretreatment time 15 min, mice): 0/8
p/t, number of animals protected against MES-induced seizures / number tested ([2]; pretreatment time 30 min, mice): 0/8
p/t, number of animals protected against MES-induced seizures / number tested ([2]; pretreatment time 60 min, mice): 1/8
p/t, number of animals protected against MES-induced seizures / number tested [2, 4]: 0/8
responders at 300 mg/kg [2, 5]: 0%
responders at 300 mg/kg [2, 6]: 0%
responders at 300 mg/kg [2, 7]: 12.5%
responders at 300 mg/kg [2, 8]: 0%
melting point: 214 to 216 °C
Percent of Specific Binding, GABAA (GABAA receptors): 21%

Fc1ccccc1-n1c(-c2ccc(Cl)cc2)n[nH]c1=S [Compound 12a, 5-(4-Chlorophenyl)-4-(2-fluorophenyl)-2,4-dihydro-3H-1,2,4-triazole-3-thione]
Percent of Specific Binding, BDZ [1]: 18%
p/t, number of animals protected against MES-induced seizures / number tested ([2]; pretreatment time 15 min, mice): 6/8
p/t, number of animals protected against MES-induced seizures / number tested ([2]; pretreatment time 30 min, mice): 6/8
p/t, number of animals protected against MES-induced seizures / number tested ([2]; pretreatment time 60 min, mice): 7/8
p/t, number of animals protected against MES-induced seizures / number tested [2, 4]: 7/8
responders at 300 mg/kg [2, 5]: 75%
responders at 300 mg/kg [2, 6]: 75%
responders at 300 mg/kg [2, 7]: 87.5%
responders at 300 mg/kg [2, 8]: 87.5%
ED50 [2, 9]: 208 ± 25.3 mg/kg
ED50 [2, 10]: 186 ± 24.6 mg/kg
ED50 [2, 11]: 218 ± 21.7 mg/kg
ED50 [2, 12]: 209 ± 27.3 mg/kg
ED50 ([2]; pretreatment times 15, 30, 60, 120 min, read-out: ED50 (MES), range over pretreatment times): 186 to 218 mg/kg
PI (TD50/ED50) [2, 13]: 2.6
PI (TD50/ED50) [2, 14]: 2.7
PI (TD50/ED50) [2, 15]: 1.9
PI (TD50/ED50) [2, 16]: 2.3
onset of action ([2]; MES, mice): quick onset of action
melting point: 240 to 242 °C
Percent of Specific Binding, GABAA (GABAA receptors): 13%

CCCC(CCC)C(=O)O [Valproate, Magnesium valproate]
TD50 ± S.E. (chimney test) ([3]; pretreatment time 15 min): 363.3 ± 14.2 mg/kg
TD50 ± S.E. (chimney test) ([3]; pretreatment time 30 min): 372.9 ± 16.9 mg/kg
TD50 ± S.E. (chimney test) ([3]; pretreatment time 60 min): 417.3 ± 9.5 mg/kg
TD50 ± S.E. (chimney test) ([3]; pretreatment time 120 min): 512.3 ± 20.2 mg/kg
ED50 [2, 10]: 217 ± 9.4 mg/kg
ED50 [2, 11]: 218 ± 18.9 mg/kg
ED50 [2, 12]: 247 ± 21.6 mg/kg

S=c1[nH]nc(-c2ccc(Cl)cc2)n1-c1ccc(Br)cc1 [Compound 16a, 4-(4-Bromophenyl)-5-(4-chlorophenyl)-2,4-dihydro-3H-1,2,4-triazole-3-thione]
Percent of Specific Binding, BDZ [1]: 24%
p/t, number of animals protected against MES-induced seizures / number tested ([2]; pretreatment time 15 min, mice): 5/8
p/t, number of animals protected against MES-induced seizures / number tested ([2]; pretreatment time 30 min, mice): 7/8
p/t, number of animals protected against MES-induced seizures / number tested ([2]; pretreatment time 60 min, mice): 8/8
p/t, number of animals protected against MES-induced seizures / number tested [2, 4]: 8/8
responders at 300 mg/kg [2, 5]: 62.5%
responders at 300 mg/kg [2, 6]: 87.5%
responders at 300 mg/kg [2, 7]: 100%
responders at 300 mg/kg [2, 8]: 100%
ED50 [2, 9]: 272 ± 21.4 mg/kg
ED50 [2, 10]: 182 ± 44.3 mg/kg
ED50 [2, 11]: 153 ± 23.5 mg/kg
ED50 [2, 12]: 141 ± 25.1 mg/kg
time to peak of the anticonvulsant action ([2]; after i.p. administration, MES, mice): 120 min
PI (TD50/ED50) [2, 13]: 1.6
PI (TD50/ED50) [2, 14]: 2.6
PI (TD50/ED50) [2, 15]: 3.0
PI (TD50/ED50) [2, 16]: 2.9
onset of action ([2]; MES, mice): quick onset of action
Percent of Specific Binding, GABAA (GABAA receptors): 17%

Cc1ccc(-n2c(-c3cccc(Cl)c3)nn(CN3CCOCC3)c2=S)cc1 [Compound 22a, 5-(3-Chlorophenyl)-4-(4-methylphenyl)-2-(morpholin-4-ylmethyl)-2,4-dihydro-3H-1,2,4-triazole-3-thione]
Percent of Specific Binding, BDZ [1]: 12%
p/t, number of animals protected against MES-induced seizures / number tested ([2]; pretreatment time 15 min, mice): 4/8
p/t, number of animals protected against MES-induced seizures / number tested ([2]; pretreatment time 30 min, mice): 5/8
p/t, number of animals protected against MES-induced seizures / number tested ([2]; pretreatment time 60 min, mice): 3/8
p/t, number of animals protected against MES-induced seizures / number tested [2, 4]: 2/8
anticonvulsant activity (in words) ([2]; MES test, mice): slightly weaker than that of valproate; also recorded: weak anticonvulsant activity
responders at 300 mg/kg [2, 5]: 50%
responders at 300 mg/kg [2, 6]: 62.5%
responders at 300 mg/kg [2, 7]: 37.5%
responders at 300 mg/kg [2, 8]: 25%
ED50 [2, 9]: 224 ± 20.9 mg/kg
ED50 [2, 10]: 228 ± 14.7 mg/kg
ED50 [2, 11]: 274 ± 10.9 mg/kg
ED50 [2, 12]: 448 ± 21.4 mg/kg
PI (TD50/ED50) [2, 13]: 1.5
PI (TD50/ED50) [2, 14]: 1.4
PI (TD50/ED50) [2, 15]: 1.6
PI (TD50/ED50) [2, 16]: 1.0
onset of action ([2]; MES, mice): quick onset of action
Percent of Specific Binding, GABAA (GABAA receptors): 6%

Fc1ccccc1-n1c(-c2cccc(Cl)c2)n[nH]c1=S [Compound 1a, 5-(3-Chlorophenyl)-4-(2-fluorophenyl)-2,4-dihydro-3H-1,2,4-triazole-3-thione]
Percent of Specific Binding, BDZ [1]: 14%
p/t, number of animals protected against MES-induced seizures / number tested ([2]; pretreatment time 15 min, mice): 0/8
p/t, number of animals protected against MES-induced seizures / number tested ([2]; pretreatment time 30 min, mice): 0/8
p/t, number of animals protected against MES-induced seizures / number tested ([2]; pretreatment time 60 min, mice): 1/8
p/t, number of animals protected against MES-induced seizures / number tested [2, 4]: 1/8
responders at 300 mg/kg [2, 5]: 0%
responders at 300 mg/kg [2, 6]: 0%
responders at 300 mg/kg [2, 7]: 12.5%
responders at 300 mg/kg [2, 8]: 12.5%
melting point: 170 to 171 °C
Percent of Specific Binding, GABAA (GABAA receptors): 8%
